Assays:
Assay type in all cases: physicochemical
[1] = LNP Zeta potential measured using a Zetasizer (Malvern); conditions: for Zeta potential (mV): Table 10, LNP with hEPO mRNA, Lipid:DSPC:Cholesterol:DMG-PEG2k 50:10:38.5:1.5 mol %, N:P ratio 6; for Zeta potential: LNP 50:10:38.5:1.5 mol %, hEPO mRNA, N:P 6
[2] = LNP size and polydispersity index (PDI) by dynamic light scattering (DLS); conditions: for Size: LNP Lipid:DSPC:Cholesterol:DMG-PEG2k 50:10:38.5:1.5 mol %
[3] = Encapsulation efficiency (EE %) by fluorescence based Ribogreen assay
[4] = Table 10, LNP with hEPO mRNA, Lipid:DSPC:Cholesterol:DMG-PEG2k 50:10:38.5:1.5 mol %, N:P ratio 6, DLS
[5] = Table 10, LNP with hEPO mRNA, Lipid:DSPC:Cholesterol:DMG-PEG2k 50:10:38.5:1.5 mol %, N:P ratio 6, Ribogreen assay
[6] = Table 8, LNP 50:10:38.5:1.5 mol %, hEPO mRNA, N:P 6
[7] = Table 9, LNP 50:10:38.5:1.5 mol %, hEPO mRNA, N:P 6

Row | SMILES | Zeta potential ([1]; Table 8) | PDI [2, 6] | Size ([2]; Table 8, hEPO mRNA, N:P 6) | Encapsulation Efficiency % [3, 6] | Zeta potential ([1]; Table 9) | PDI [2, 7] | Size ([2]; Table 9, hEPO mRNA, N:P 6) | Encapsulation Efficiency % [3, 7] | other results
1 | CCCCCCCCC(CCCCCC)C(=O)OCCN(CCOC(=O)CCCCCCC(C)C)C(=O)CCN(CC)CC (stereo not drawn) [Compound 917d] | – | – | – | – | – | – | – | – | Zeta potential (mV) [1]: −3.3 mV; PDI [2, 4]: 0.096; Size (nm) [2, 4]: 122 nm; Encapsulation Efficiency % [3, 5]: 60.3%
2 | CCCCCCCCCC(CCCCCCCCC)C(=O)OCCN(CCOC(=O)C(CCCCCCCCC)CCCCCCCCC)C(=O)CCN(C)CC [Compound 917e] | – | – | – | – | – | – | – | – | Zeta potential (mV) [1]: −4.2 mV; PDI [2, 4]: 0.222; Size (nm) [2, 4]: 52.5 nm; Encapsulation Efficiency % [3, 5]: 95.4%
3 | CCCCCCCCCC(CCCCCCCCC)C(=O)OCCN(CCOC(=O)C(CCCCCCCCC)CCCCCCCCC)C(=O)CCN(CC)CC [Compound 917f] | – | – | – | – | – | – | – | – | Zeta potential (mV) [1]: −11.1 mV; PDI [2, 4]: 0.314; Size (nm) [2, 4]: 51.5 nm; Encapsulation Efficiency % [3, 5]: 91.9%
4 | CCCCCCCCCC(CCCCCCCCC)C(=O)OCCN(CCOC(=O)C(CCCCCCCCC)CCCCCCCCC)C(=O)CCN(C)CCC [Compound 917g] | – | – | – | – | – | – | – | – | Zeta potential (mV) [1]: −10.2 mV; PDI [2, 4]: 0.281; Size (nm) [2, 4]: 49.2 nm; Encapsulation Efficiency % [3, 5]: 93.5%
5 | CCCCCCCC/C=C\CCCCCCCC(=O)OCCN(CCOC(=O)C(CCCCCC)CCCCCCCC)C(=O)CCN1CCCCC1 (stereo not drawn) [Compound 917h] | – | – | – | – | – | – | – | – | Zeta potential (mV) [1]: −8.2 mV; PDI [2, 4]: 0.137; Size (nm) [2, 4]: 89.6 nm; Encapsulation Efficiency % [3, 5]: 91.4%
6 | CCCCCCCCC(CCCCCC)C(=O)OCCN(CCOC(=O)C(CCCCCC)CCCCCCCC)C(=O)C(C)CNC.Cl (stereo not drawn) [Compound 924] | −8.7 mV | 0.142 | 87.2 nm | 99.9% | – | – | – | – | –
7 | CCCCCCCCC(CCCCCC)C(=O)OCCN(CCOC(=O)C(CCCCCC)CCCCCCCC)C(=O)C(C)CNCC.Cl (stereo not drawn) [Compound 925] | −6.1 mV | 0.146 | 79.6 nm | 99.9% | – | – | – | – | –
8 | CCCCCCCCC(CCCCCC)C(=O)OCCN(CCOC(=O)C(CCCCCC)CCCCCCCC)C(=O)C(C)CNCCC.Cl (stereo not drawn) [Compound 928] | −11.9 mV | 0.177 | 75.5 nm | 91.8% | – | – | – | – | –
9 | CCCCCCCCC(CCCCCC)C(=O)OCCN(CCOC(=O)C(CCCCCC)CCCCCCCC)C(=O)CCCN(C)C (stereo not drawn) [Compound 931] | −8.457 mV | 0.117 | 125.8 nm | 99.9% | – | – | – | – | –
10 | CCCCCCCCCC(CCCCCCCC)C(=O)OCCN(CCOC(=O)C(CCCCCCCC)CCCCCCCCC)C(=O)CCCN(C)C.Cl (stereo not drawn) [Compound 933] | −12.2 mV | 0.301 | 110.9 nm | 99.2% | – | – | – | – | –
11 | CCCCCCCCC(CCCCCC)C(=O)OCCN(CCOC(=O)C(CCCCCC)CCCCCCCC)C(=O)CCCNCC.Cl (stereo not drawn) [Compound 935] | −9.5 mV | 0.167 | 111.9 nm | 99.9% | – | – | – | – | –
12 | CCCCCCCCC(CCCCCC)C(=O)OCCN(CCOC(=O)C(CCCCCC)CCCCCCCC)C(=O)CCCN(C)CC.Cl (stereo not drawn) [Compound 936] | −10.7 mV | 0.175 | 110.1 nm | 99.9% | – | – | – | – | –
13 | CCCCCCCCC(CCCCCC)C(=O)OCCN(CCOC(=O)C(CCCCCC)CCCCCCCC)C(=O)CCCN(CC)CC.Cl (stereo not drawn) [Compound 937] | −9.2 mV | 0.136 | 144 nm | 99.9% | – | – | – | – | –
14 | CCCCCCCCC(CCCCCC)C(=O)OCCN(CCOC(=O)C(CCCCCC)CCCCCCCC)C(=O)CCCN(C)CCC.Cl (stereo not drawn) [Compound 938] | −18.3 mV | 0.248 | 103.7 nm | 99.9% | – | – | – | – | –
15 | CCCCCCCCC(CCCCCC)C(=O)OCCN(CCOC(=O)C(CCCCCC)CCCCCCCC)C(=O)CCCN(C)CCC.Cl (stereo not drawn) [Compound 939] | −14.9 mV | 0.172 | 103.5 nm | 98.5% | – | – | – | – | –
16 | CCCCCCCCC(CCCCCC)C(=O)OCCN(CCOC(=O)C(CCCCCC)CCCCCCCC)C(=O)CN1CCCC1.Cl (stereo not drawn) [Compound 960c] | – | – | – | – | −20.89 mV | 0.079 | 88 nm | 99.7% | –
17 | CCCCCCCCC(CCCCCC)C(=O)OCCN(CCOC(=O)C(CCCCCC)CCCCCCCC)C(=O)CN1CCCCC1.Cl (stereo not drawn) [Compound 960d] | – | – | – | – | −32.3 mV | 0.133 | 74.5 nm | 99.5% | –
18 | CCCCCCCCC(CCCCCC)C(=O)OCCN(CCOC(=O)C(CCCCCC)CCCCCCCC)C(=O)CN1CCOCC1.Cl (stereo not drawn) [Compound 960e] | – | – | – | – | −45.58 mV | 0.384 | 73.3 nm | 99.4% | –
19 | CCCCCCCCC(CCCCCC)C(=O)OCCN(CCOC(=O)C(CCCCCC)CCCCCCCC)C(=O)CN(C)CCO.Cl (stereo not drawn) [Compound 960g] | – | – | – | – | −12.1 mV | 0.254 | 72.6 nm | 99% | –
20 | CCCCCCCC(CCCCCCC)C(=O)OCCN(CCOC(=O)C(CCCCCCC)CCCCCCC)C(=O)CN(C)C.Cl [Compound 962] | – | – | – | – | −30.33 mV | 0.132 | 74.9 nm | 99.6% | –
21 | CCCCCCCCCC(CCCCCCCCC)C(=O)OCCN(CCOC(=O)C(CCCCCCCCC)CCCCCCCCC)C(=O)CN(C)C.Cl [Compound 963] | – | – | – | – | −41.21 mV | 0.447 | 76.1 nm | 99.2% | –
22 | CCCCCCCCC(CCCCCC)C(=O)OCCN(CCOC(=O)C(CCCCCC)CCCCCCCC)C(=O)CNC.Cl (stereo not drawn) [Compound 964] | – | – | – | – | −26.13 mV | 0.317 | 73.9 nm | 99.3% | –
23 | CCCCCCCCC(CCCCCC)C(=O)OCCN(CCOC(=O)C(CCCCCC)CCCCCCCC)C(=O)CNCC.Cl (stereo not drawn) [Compound 965] | – | – | – | – | −14.27 mV | 0.216 | 76.3 nm | 98.6% | –
24 | CCCCCCCCC(CCCCCC)C(=O)OCCN(CCOC(=O)C(CCCCCC)CCCCCCCC)C(=O)CN(C)CC.Cl (stereo not drawn) [Compound 966] | – | – | – | – | −36.65 mV | 0.076 | 89.5 nm | 97.8% | –
25 | CCCCCCCCC(CCCCCC)C(=O)OCCN(CCOC(=O)C(CCCCCC)CCCCCCCC)C(=O)CN(CC)CC.Cl (stereo not drawn) [Compound 967] | – | – | – | – | −21.99 mV | 0.101 | 82.1 nm | 97.9% | –
26 | CCCCCCCCC(CCCCCC)C(=O)OCCN(CCOC(=O)C(CCCCCC)CCCCCCCC)C(=O)CNCCC.Cl (stereo not drawn) [Compound 968] | – | – | – | – | −13.15 mV | 0.368 | 76.7 nm | 98.2% | –
27 | CCCCCCCCC(CCCCCC)C(=O)OCCN(CCOC(=O)C(CCCCCC)CCCCCCCC)C(=O)CN(C)CCC.Cl (stereo not drawn) [Compound 969] | – | – | – | – | −28.83 mV | 0.15 | 70 nm | 99.4% | –
28 | CCCCCCCCC(CCCCCC)C(=O)OCCN(CCOC(=O)C(CCCCCC)CCCCCCCC)C(=O)CCCN(CC)CCC.Cl (stereo not drawn) [Compound 980] | −18.1 mV | 0.159 | 90.1 nm | 94.9% | – | – | – | – | –
29 | CCCCCCCCC(CCCCCC)C(=O)OCCN(CCOC(=O)C(CCCCCC)CCCCCCCC)C(=O)CCCN1CCCC1.Cl (stereo not drawn) [Compound 982] | −14.2 mV | 0.081 | 120.5 nm | 99.9% | – | – | – | – | –
30 | CCCCCCCCC(CCCCCC)C(=O)OCCN(CCOC(=O)C(CCCCCC)CCCCCCCC)C(=O)CCCN1CCCCC1.Cl (stereo not drawn) [Compound 983] | −15.9 mV | 0.114 | 90.4 nm | 97.1% | – | – | – | – | –

Reference: patent publication US20250268826A1, “IONIZABLE LIPIDOID COMPOSITIONS AND THERAPEUTIC USES THEREOF” (Flagship Pioneering Innovations VII, LLC, priority 2023, published 2025)
